Columns and labels:
[1] = tested on: qNSC activity in SVZ of Shank3-deficient mice; experiment: Recovery of BrdU-positive cells after temozolomide (TMZ) injection; type: in vivo, mouse; details: after 7 days of TMZ injection, relative to control mice
Procedure: (§1) FIG. 5 (A) Immunostaining results of quiescent neural stem cells in the SVZ of control and Shank3 KO mice injected with saline, OICR-9429 (3 mg/kg, once/day, 3 days), romidepsin (0.25 mg/kg, once/day, 3 days), and clozapine (5 mg/kg, once/day, 3 days). The yellow arrows indicate GFAP+Sox2+Dlx2− qNSCs. Scale bar=20 μm. (B) Immunostaining results of quiescent neural stem cells in the DG of control and Shank3 KO mice injected with saline, OICR-9429 (3 mg/kg, once/day, 3 days), romidepsin (0.25 mg/kg, once/day, 3 days), and clozapine (5 mg/kg, once/day, 3 days). The yellow arrows indicate GFAP+Sox2+NeuN− qNSCs. Scale bar=20 μm. (C-E) Quantification results of FAP+Sox2+Id2+ (C) and GFAP+Sox2+Dlx2− (D) qNSCs in the SVZ and GFAP+Sox2+NeuN− (E) qNSCs in the DG. (F) Quantification results of BrdU+ NSCs in the SVZ injected with saline, OICR-9429, romidepsin, and clozapine. Control and Shank3 KO mice injected with each drug were injected intraperitoneally with a daily dose of BrdU (100 mg/kg/day). (G) Quantification results of DCX+ NPCs in the DG of control and Shank3 KO mice injected with each drug. (H) Immunofluorescence analysis of GFAP+,Sox2+,BrdU+ aNSCs in the SVZ of control and Shank3 KO mice injected with each drug. Scale bar=100 μm. (I) Quantification results of BrdU+ cells in the SVZ of saline- or OICR-9429-treated control and Shank3 mice at different time points after TMZ injection. […]

[2] = tested on: quiescent neural stem cells in SVZ and DG of Shank3-deficient mice; experiment: Immunostaining quantification of qNSCs, BrdU+ NSCs and DCX+ cells after drug injection; type: in vivo, mouse; details: for number of GFAP+,Sox2+,Dlx2− qNSCs / number of GFAP+,Sox2+,Id2+ qNSCs: 2 weeks after administration, OICR-9429 3 mg/kg, romidepsin 0.25 mg/kg, clozapine 5 mg/kg, once/day, 3 days
Procedure: (§2) FIG. 5 (A) Immunostaining results of quiescent neural stem cells in the SVZ of control and Shank3 KO mice injected with saline, OICR-9429 (3 mg/kg, once/day, 3 days), romidepsin (0.25 mg/kg, once/day, 3 days), and clozapine (5 mg/kg, once/day, 3 days). The yellow arrows indicate GFAP+Sox2+Dlx2− qNSCs. Scale bar=20 μm. (B) Immunostaining results of quiescent neural stem cells in the DG of control and Shank3 KO mice injected with saline, OICR-9429 (3 mg/kg, once/day, 3 days), romidepsin (0.25 mg/kg, once/day, 3 days), and clozapine (5 mg/kg, once/day, 3 days). The yellow arrows indicate GFAP+Sox2+NeuN− qNSCs. Scale bar=20 μm. (C-E) Quantification results of FAP+Sox2+Id2+ (C) and GFAP+Sox2+Dlx2− (D) qNSCs in the SVZ and GFAP+Sox2+NeuN− (E) qNSCs in the DG. (F) Quantification results of BrdU+ NSCs in the SVZ injected with saline, OICR-9429, romidepsin, and clozapine. Control and Shank3 KO mice injected with each drug were injected intraperitoneally with a daily dose of BrdU (100 mg/kg/day). (G) Quantification results of DCX+ NPCs in the DG of control and Shank3 KO mice injected with each drug. (H) Immunofluorescence analysis of GFAP+,Sox2+,BrdU+ aNSCs in the SVZ of control and Shank3 KO mice injected with each drug. Scale bar=100 μm. (I) Quantification results of BrdU+ cells in the SVZ of saline- or OICR-9429-treated control and Shank3 mice at different time points after TMZ injection. (J) Analysis of protein expression levels of synaptic proteins and glutamate receptor subunits from control or Shank3 KO mice injected with saline or OICR-9429. (K) Results of representative heat maps showing the time spent in 3 chambers to assess the social interactions of control and Shank3 KO mice treated with saline, OICR-9429, romidepsin, clozapine, and VPA. (L-O) Social preference index percentages (Soc vs. NS ratio) in Shank3 KO mice injected with OICR-9429 (L), romidepsin (M), clozapine (N), and VPA (O) for 28 days.
To provide a drug-based therapeutic strategy for autism, Shank3-deficient mice were treated with OICR-9429, which is an antagonist inhibiting H3K4 trimethylation by KMT2A, and the effect was investigated. […] Similarly, OICR-9429 injection reduced the number of GFAP+,Sox2+,NeuN− qNSCs during hippocampal neurogenesis in Shank3-deficient mice (FIGS. 5B and 5E). […] Finally, as a result of treatment with OICR-9429, the number of DCX-positive neuroblasts increased in the brains of Shank3-deficient mice (FIG. 5G).

[3] = tested on: HOMER1, SAPAP3, GluR1, NR2A; experiment: Western blot of synaptic proteins and glutamate receptor subunits in SHANK3-deficient human cultures; type: cell-based
[4] = tested on: Homer1, SAPAP3, GluR1, GluR2, NR2A, NR2B; experiment: Protein expression levels of synaptic proteins and glutamate receptor subunits in mice; type: in vivo, mouse; details: Shank3-deficient mice
Procedure: as §1

[5] = tested on: SHANK3-deficient human radial glia cells; experiment: Immunofluorescence of SHANK3-deficient human iPSC-derived neural stem (radial glia) cells; type: cell-based; details: five days after treatment
Description: FIG. 6 (A) Immunostaining results of GFAP+,SOX2+,ID2+ and GFAP+,SOX2+,NESTIN+ quiescent neural stem cells (radical glia cell, RGCs) from control or SHANK3-deficient iPSCs. White arrows indicate human RGCs. Scale bar=20 μm. (B) Quantification results of GFAP+,SOX2+,I D2+ RGCs with radial morphology. (C) Quantification results of GFAP+,SOX2+,NESTIN+ RGCs with radial morphology. (D) Immunostaining of GFAP+,SOX2+,EGFR+ aNSC and K167+ proliferating cells. Scale bar=20 μm. (E) Quantification results of GFAP+,SOX2+,EGFR+ aNSCs from control or SHANK3-deficient RGCs. (F) Quantification results of K167+ proliferating cells from control or SHANK3-deficient RGCs. (G) Immunofluorescence analysis of GFAP+,SOX2+,NESTIN+ RGCs from control or SHANK3-deficient NSCs treated with KMT2A-shRNA. The white arrow indicates cells with radial morphology. Scale bar=20 μm. (H) Quantification results of the number of GFAP+,SOX2+,NESTIN+ RGCs with radial morphology and GFAP+,SOX2+,NESTIN+ RGCs with nonradial morphology treated with KMT2A-shRNA. […]
The molecular mechanisms underlying the autism phenotypes associated with SHANK3 deficiency in human iPSC-derived neural differentiation were investigated. […] Additionally, it was analyzed whether or not SHANK3-deficient human radial glia cells are pharmacologically treated by OICR-9429.

[6] = tested on: Shank3-deficient mice; experiment: Social interaction behavioral test (3 chambers) after drug injection; type: in vivo, mouse; details: for time participating in social stimuli: 3-chamber test; for social preference index (persistence of effect): followed for 28 days after injection
Procedure: as §2
In addition, to investigate the therapeutic effect of OICR-9429, a social interaction behavioral test was performed on Shank3-deficient mice injected with various neuropsychiatric drugs.

| SMILES | BrdU-positive cells after TMZ injection [1] | number of rapidly dividing cells labeled with BrdU ([2]; SVZ, Shank3-deficient mice) | number of GFAP+,Sox2+,Dlx2− qNSCs ([2]; SVZ, Shank3-deficient mice) | number of GFAP+,Sox2+,Id2+ qNSCs ([2]; SVZ, Shank3-deficient mice) | number of DCX-positive neuroblasts ([2]; brains (DG) of Shank3-deficient mice) | number of GFAP+,Sox2+,NeuN− qNSCs ([2]; hippocampal neurogenesis (DG), Shank3-deficient mice) | expression levels of synaptic proteins HOMER1 and SAPAP3 and glutamate receptor subunits GluR1 and NR2A [3] | expression of synaptic proteins Homer1 and SAPAP3 and glutamate receptor subunits GluR1, GluR2, NR2A, and NR2B [4] | proportion of GFAP+,SOX2+,NESTIN+ radial glia cells with non-radial morphology ([5]; SHANK3-deficient neural stem cells) | proportion of GFAP+,SOX2+,NESTIN+ radial glia cells with radial morphology ([5]; SHANK3-deficient radial glia cells) | time participating in social stimuli [6] | social preference index (persistence of effect) [6] |
| --- | --- | --- | --- | --- | --- | --- | --- | --- | --- | --- | --- | --- |
| CN1CCN(c2ccc(-c3cccc(CN4CCOCC4)c3)cc2NC(=O)c2c[nH]c(=O)cc2C(F)(F)F)CC1 [OICR-9429] | significantly recovered | greatly increased | significantly decreased | significantly decreased | increased | reduced | greatly increased | significantly restored | significant decrease | decreased | significantly more time | gradually improved up to 3 weeks after injection |
| CCCC(CCC)C(=O)O [VPA] | – | – | – | – | – | – | – | – | – | – | no significant effect | did not improve |
| CN1CCN(C2=Nc3cc(Cl)ccc3Nc3ccccc32)CC1 [clozapine] | – | – | no effect | no effect | – | – | – | – | – | – | no significant effect | – |
| C/C=C1\NC(=O)[C@H]2CSSCC/C=C/[C@H](CC(=O)N[C@H](C(C)C)C(=O)N2)OC(=O)[C@H](C(C)C)NC1=O [romidepsin] | – | – | no effect | no effect | – | – | – | – | – | – | no significant effect | – |
